Measured values from patent US12448377B2, “Heterocyclic compound” (Takeda Pharmaceutical Company Limited, priority 2019, dated 2025).

Molecular target: T1, human orexin type 2 receptor (Homo sapiens, UniProt O43614)
T1 construct: expressed in transfected cells
T1 sequence (O43614 1-444): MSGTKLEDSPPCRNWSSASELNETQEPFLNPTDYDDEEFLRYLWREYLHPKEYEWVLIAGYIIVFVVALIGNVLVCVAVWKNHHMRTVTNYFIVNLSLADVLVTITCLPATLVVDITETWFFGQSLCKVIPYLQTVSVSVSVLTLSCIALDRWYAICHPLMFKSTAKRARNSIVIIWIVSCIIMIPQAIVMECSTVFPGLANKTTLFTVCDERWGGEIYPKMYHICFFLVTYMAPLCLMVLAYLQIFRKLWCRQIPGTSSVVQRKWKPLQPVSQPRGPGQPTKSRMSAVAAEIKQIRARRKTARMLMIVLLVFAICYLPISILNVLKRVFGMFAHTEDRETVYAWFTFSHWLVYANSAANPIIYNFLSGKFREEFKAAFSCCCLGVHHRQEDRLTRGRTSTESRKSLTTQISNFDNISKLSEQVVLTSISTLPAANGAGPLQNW
Assay: Measurement of orexin type 2 receptor agonist activity (calcium fluorescence, CHO cells forcibly expressing human OX2 receptor)
Format: cell-based
Details: compound at 3 μM, DMSO = 0%, orexin A (human) 10 nM = 100%
Source text: To obtain a cell clone stably expressing human orexin type 2 receptor, human orexin type 2 receptor cDNA was inserted into pcDNA3.1(+) plasmid vector (Invitrogen), and a plasmid DNA for expression of human orexin type 2 receptor (pcDNA3.1(+)/hOX2R) was cloned. The plasmid DNA was introduced into CHO-K1 cell by an electroporation method, and human orexin type 2 receptor-expressing clonal cells were obtained by limiting dilution method using G418 drug resistance as a selection marker.
CHO cells forcibly expressing human OX2 receptor were seeded in each well of 384 well black transparent bottom plate (BD Falcon) at 10,000 cells/well, and cultured for one day in a 5% CO2 incubator at 37° C. After removal of the medium in the cell plate, assay buffer A containing a calcium indicator (HBSS (Thermo Fisher Scientific), 20 mM HEPES (Thermo Fisher Scientific), 0.1% BSA (Sigma-Aldrich), 2.5 μg/mL Fluo-4 AM (DOJINDO Chemical), 0.08% Pluronic F127 (DOJINDO Chemical), 1.25 mM probenecid (DOJINDO Chemical)) was added thereto at 30 μL/well. The plate was stood for 30 min in a 5% CO2 incubator at 37° C., and further stood at room temperature for 30 min. A test compound prepared by diluting with assay buffer B (HBSS, 20 mM HEPES, 0.1% BSA) was added thereto at 10 μL/well, and the fluorescence value was measured by FDSSμCELL (Hamamatsu Photonics K.K.) every one sec for 1 min, and thereafter every two sec for 1 min 40 sec. The activity (%) of the test compound was calculated assuming that variation in the fluorescence value when DMSO was added instead of the test compound was 0%, and variation in the fluorescence value when orexin A (human) (PEPTIDE INSTITUTE, INC.) was added at the final concentration of 10 nM was 100%.

| OX2R agonist activity (3 μM, %) [%] | SMILES |
| --- | --- |
| 89 | Cc1ccc2n(c1=O)C(COC1CCC(CC3CC3)CC1)C(NS(C)(=O)=O)CC2 (racemic) [Example 87, rac-N-[(3S,4R)-4-({[(1s,4S)-4-(cyclopropylmethyl)cyclohexyl]oxy}methyl)-7-methyl-6-oxo-1,3,4,6-tetrahydro-2H-quinolizin-3-yl]methanesulfonamide] |
| 85 | CCS(=O)(=O)NC1CCc2ccc(C)c(=O)n2C1COC1CCC(C)CC1 (racemic) [Example 7, rac-N-[(3S,4R)-7-methyl-4-({[(1s,4S)-4-methylcyclohexyl]oxy}methyl)-6-oxo-1,3,4,6-tetrahydro-2H-quinolizin-3-yl]ethanesulfonamide] |
| 84 | CC1CCC(OCC2C(NS(C)(=O)=O)CCc3ccc(C4CC4)c(=O)n32)CC1 [Example 105, rel-N-[(3S,4R)-7-cyclopropyl-4-({[(1s,4S)-4-methylcyclohexyl]oxy)methyl)-6-oxo-1,3,4,6-tetrahydro-2H-quinolizin-3-yl]methanesulfonamide] |
| 103 | Cc1ccc2n(c1=O)C(COC1CCC(OC(C)C)CC1)C(NS(C)(=O)=O)CC2 (racemic) [Example 61, rac-N-{(3S,4R)-7-methyl-6-oxo-4-[({(1s,4S)-4-[(propan-2-yl)oxy]cyclohexyl}oxy)methyl]-1,3,4,6-tetrahydro-2H-quinolizin-3-yl)methanesulfonamide] |
| 91 | Cc1ccc2n(c1=O)C(COC1CCC(c3ccccc3)CC1)C(NS(=O)(=O)C1CC1)CC2 (racemic) [Example 16, rac-N-[(3S,4R)-7-methyl-6-oxo-4-({[(1s,4S)-4-phenylcyclohexyl]oxy}methyl)-1,3,4,6-tetrahydro-2H-quinolizin-3-yl]cyclopropanesulfonamide] |
| 100 | CCC1CCC(OCC2C(NS(C)(=O)=O)CCc3c(C4CC4)cc(C)c(=O)n32)CC1 [Example 115, rel-N-[(3S,4R)-9-cyclopropyl-4-({[(1s,4S)-4-ethylcyclohexyl]oxy)methyl)-7-methyl-6-oxo-1,3,4,6-tetrahydro-2H-quinolizin-3-yl]methanesulfonamide] |
| 112 | Cc1ccc2n(c1=O)C(COC1CCC(C)CC1)C(NS(C)(=O)=O)CC2 [Example 5, rel-N-[(3S,4R)-7-methyl-4-({[(1r,4R)-4-methylcyclohexyl]oxy}methyl)-6-oxo-1,3,4,6-tetrahydro-2H-quinolizin-3-yl]methanesulfonamide] |
| 89 | CC1CCC(OCC2C(NS(C)(=O)=O)CCc3cccc(=O)n32)CC1 (racemic) [Example 3, rac-N-[(3S,4R)-4-({[(1s,4S)-4-methylcyclohexyl]oxy}methyl)-6-oxo-1,3,4,6-tetrahydro-2H-quinolizin-3-yl]methanesulfonamide] |
| 58 | COC1CCC(OCC2C(NS(C)(=O)=O)CCc3ccc(C)c(=O)n32)CC1 (racemic) [Example 4, N-[(3SR,4RS)-4-{[(4-methoxycyclohexyl)oxy]methyl}-7-methyl-6-oxo-1,3,4,6-tetrahydro-2H-quinolizin-3-yl]methanesulfonamide] |
| 101 | C#CC1CCC(OCC2C(NS(C)(=O)=O)CCc3ccc(C)c(=O)n32)CC1 (racemic) [Example 108, rac-N-[(3S,4R)-4-({[(1s,4S)-4-ethynylcyclohexyl]oxy}methyl)-7-methyl-6-oxo-1,3,4,6-tetrahydro-2H-quinolizin-3-yl]methanesulfonamide] |
| 96 | CC#CC1CCC(OCC2C(NS(C)(=O)=O)CCc3ccc(C)c(=O)n32)CC1 (racemic) [Example 109, rac-N-[(3S,4R)-7-methyl-6-oxo-4-({[(1s,4S)-4-(prop-1-yn-1-yl)cyclohexyl]oxy}methyl)-1,3,4,6-tetrahydro-2H-quinolizin-3-yl]methanesulfonamide] |
| 94 | CCc1ccc2n(c1=O)C(COC1CCC(C)CC1)C(NS(C)(=O)=O)CC2 (racemic) [Example 2, rac-N-[(3S,4R)-7-ethyl-4-({[(1s,4S)-4-methylcyclohexyl]oxy}methyl)-6-oxo-1,3,4,6-tetrahydro-2H-quinolizin-3-yl]methanesulfonamide] |
| 96 | Cc1ccc2n(c1=O)C(COC1CCC(C(C)C)CC1)C(NS(C)(=O)=O)CC2 (racemic) [Example 12, rac-N-[(3S,4R)-7-methyl-6-oxo-4-({[(1s,4S)-4-(propan-2-yl)cyclohexyl]oxy}methyl)-1,3,4,6-tetrahydro-2H-quinolizin-3-yl] methanesulfonamide] |
| 88 | Cc1ccc(C2CCC(OCC3C(NS(=O)(=O)N(C)C)CCc4ccc(C)c(=O)n43)CC2)cc1 (racemic) [Example 35, rac-N,N-dimethyl-N′-[(3S,4R)-7-methyl-4-({[(1s,4S)-4-(4-methylphenyl)cyclohexyl]oxy}methyl)-6-oxo-1,3,4,6-tetrahydro-2H-quinolizin-3-yl]sulfuric diamide] |
| 90 | Cc1ccc2n(c1=O)C(COC1CCC(COC(C)C)CC1)C(NS(C)(=O)=O)CC2 (racemic) [Example 92, rac-N-[(3S,4R)-7-methyl-6-oxo-4-({[(1s,4S)-4-([(propan-2-yl)oxy]methyl}cyclohexyl]oxy}methyl)-1,3,4,6-tetrahydro-2H-quinolizin-3-yl]methanesulfonamide] |
| 95 | CC#CC1CCC(OCC2C(NS(=O)(=O)NC)CCc3ccc(C)c(=O)n32)CC1 [Example 149, rel-N-methyl-N′-[(3S,4R)-7-methyl-6-oxo-4-({[(1s,4S)-4-(prop-1-yn-1-yl)cyclohexyl]oxy}methyl)-1,3,4,6-tetrahydro-2H-quinolizin-3-yl]sulfuric diamide] |
| 84 | Cc1ccc(C2CCC(OCC3C(NS(=O)(=O)C4CC4)CCc4ccc(C)c(=O)n43)CC2)cc1 (racemic) [Example 36, rac-N-[(3S,4R)-7-methyl-4-({[(1s,4S)-4-(4-methylphenyl)cyclohexyl]oxy}methyl)-6-oxo-1,3,4,6-tetrahydro-2H-quinolizin-3-yl]cyclopropanesulfonamide] |
| 96 | CCC1CCC(OCC2C(NS(C)(=O)=O)CCc3ccc(C4CC4)c(=O)n32)CC1 [Example 66, rel-N-[(3S,4R)-7-cyclopropyl-4-({[(1s,4S)-4-ethylcyclohexyl]oxy}methyl)-6-oxo-1,3,4,6-tetrahydro-2H-quinolizin-3-yl]methanesulfonamide] |
| 96 | CCS(=O)(=O)NC1CCc2ccc(C)c(=O)n2C1COC1CCC(c2ccccc2C)CC1 (racemic) [Example 23, rac-N-[(3S,4R)-7-methyl-4-({[(1s,4S)-4-(2-methylphenyl)cyclohexyl]oxy}methyl)-6-oxo-1,3,4,6-tetrahydro-2H-quinolizin-3-yl]ethanesulfonamide] |
| 78 | CCS(=O)(=O)NC1CCc2ccc(C)c(=O)n2C1COC1CCC(c2ccc(C)cc2)CC1 (racemic) [Example 34, rac-N-[(3S,4R)-7-methyl-4-({[(1s,4S)-4-(4-methylphenyl)cyclohexyl]oxy}methyl)-6-oxo-1,3,4,6-tetrahydro-2H-quinolizin-3-yl]ethanesulfonamide] |
| 85 | CCC1CCC(OCC2C(NS(=O)(=O)N(C)C)CCc3ccc(C)c(=O)n32)CC1 (racemic) [Example 27, rac-N′-[(3S,4R)-4-({[(1s,4S)-4-ethylcyclohexyl]oxy}methyl)-7-methyl-6-oxo-1,3,4,6-tetrahydro-2H-quinolizin-3-yl]-N,N-dimethylsulfuric diamide] |
| 83 | CCS(=O)(=O)NC1CCc2ccc(C)c(=O)n2C1COC1CCC(c2cccc(C)c2)CC1 (racemic) [Example 22, rac-N-[(3S,4R)-7-methyl-4-({[(1s,4S)-4-(3-methylphenyl)cyclohexyl]oxy}methyl)-6-oxo-1,3,4,6-tetrahydro-2H-quinolizin-3-yl]ethanesulfonamide] |
| 95 | Cc1ccc2n(c1=O)C(COC1CCC(c3ccccc3F)CC1)C(NS(=O)(=O)C1CC1)CC2 (racemic) [Example 45, rac-N-[(3S,4R)-4-({[(1s,4S)-4-(2-fluorophenyl)cyclohexyl]oxy}methyl)-7-methyl-6-oxo-1,3,4,6-tetrahydro-2H-quinolizin-3-yl]cyclopropanesulfonamide] |
